Data reported in ChEMBL document CHEMBL4406906, “Discovery of potent and selective butyrylcholinesterase inhibitors through the use of pharmacophore-based screening” (Bioorg Med Chem Lett, 2019).
The source made the active and inactive calls. No cut-off for these calls is given here. Where a SMILES comes first, the peptide text is derived from it. The star is where a group is joined. Boc = CC(C)(C)OC(=O)*

Each compound was assayed against Acetylcholinesterase (Homo sapiens) (UniProt P22303) (assay: Inhibition of AChE (unknown origin) at 5000 nM by Ellman's method).
Sequence of Acetylcholinesterase (Homo sapiens) (P22303 whole entry): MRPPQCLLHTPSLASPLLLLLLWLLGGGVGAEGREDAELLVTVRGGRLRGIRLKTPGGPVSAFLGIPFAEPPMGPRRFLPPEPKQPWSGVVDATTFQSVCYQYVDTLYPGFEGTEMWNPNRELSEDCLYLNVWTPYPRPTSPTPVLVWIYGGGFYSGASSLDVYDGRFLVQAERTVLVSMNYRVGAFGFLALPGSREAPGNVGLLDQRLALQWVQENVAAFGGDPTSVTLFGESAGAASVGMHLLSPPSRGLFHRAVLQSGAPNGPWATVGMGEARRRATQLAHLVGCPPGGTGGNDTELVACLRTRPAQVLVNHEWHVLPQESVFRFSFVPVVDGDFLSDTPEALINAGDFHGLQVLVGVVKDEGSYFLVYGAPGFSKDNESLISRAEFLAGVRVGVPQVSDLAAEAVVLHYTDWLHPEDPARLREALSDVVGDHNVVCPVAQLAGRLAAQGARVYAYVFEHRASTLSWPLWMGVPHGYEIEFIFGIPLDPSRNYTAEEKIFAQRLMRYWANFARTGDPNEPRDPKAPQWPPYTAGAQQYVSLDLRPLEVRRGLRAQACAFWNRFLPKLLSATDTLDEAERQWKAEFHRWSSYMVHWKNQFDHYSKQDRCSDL
With `c1ccc2c(CN3CCN(Cc4c[nH]c5ccccc45)CC3)c[nH]c2c1` the inhibition was “inactive”.
For `c1ccc2[nH]c(SCCSc3nc4ccccc4[nH]3)nc2c1`, the inhibition was “inactive”.
With `c1ccc2[nH]c(CN(CCN(Cc3nc4ccccc4[nH]3)Cc3nc4ccccc4[nH]3)Cc3nc4ccccc4[nH]3)nc2c1` the inhibition was “inactive”.
`Cc1cc(CSCCc2nc3ccccc3[nH]2)c(O)c(CSCCc2nc3ccccc3[nH]2)c1` was tested, and the inhibition was “inactive”.

Each compound was assayed against T1, Cholinesterase (Homo sapiens, UniProt P06276) (assay: Inhibition of BChE (unknown origin) at 5 uM incubated for 10 mins by Ellman's method relative to control).
T1 sequence (P06276 whole entry): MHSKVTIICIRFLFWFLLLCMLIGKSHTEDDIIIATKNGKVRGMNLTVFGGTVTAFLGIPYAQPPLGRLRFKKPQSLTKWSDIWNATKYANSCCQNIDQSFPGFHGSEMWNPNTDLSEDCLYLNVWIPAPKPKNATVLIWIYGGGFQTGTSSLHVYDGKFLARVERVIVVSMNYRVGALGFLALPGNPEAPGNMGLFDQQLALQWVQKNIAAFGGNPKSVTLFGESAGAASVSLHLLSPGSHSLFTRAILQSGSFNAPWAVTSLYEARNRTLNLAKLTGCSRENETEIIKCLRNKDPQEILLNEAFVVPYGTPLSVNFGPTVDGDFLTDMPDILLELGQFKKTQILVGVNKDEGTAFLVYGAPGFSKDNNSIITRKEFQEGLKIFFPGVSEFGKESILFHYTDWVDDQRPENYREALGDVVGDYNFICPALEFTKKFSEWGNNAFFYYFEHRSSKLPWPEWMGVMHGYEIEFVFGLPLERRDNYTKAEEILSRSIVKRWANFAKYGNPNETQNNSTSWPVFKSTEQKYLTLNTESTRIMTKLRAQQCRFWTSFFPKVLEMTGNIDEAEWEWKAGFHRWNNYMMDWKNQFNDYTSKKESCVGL
`Cn1c(=O)c2[nH]c(CCc3nc4c([nH]3)c(=O)n(C)c(=O)n4C)nc2n(C)c1=O` was tested, and the inhibition was 17.9%.
With `COC(=O)[C@H](Cc1c[nH]c2ccccc12)NC(=O)[C@H](Cc1c[nH]c2ccccc12)NC(=O)[C@H](Cc1c[nH]c2ccccc12)NC(=O)OC(C)(C)C` (Boc-Trp-Trp-Trp-OMe) the inhibition was 79.9%.
`c1ccc2c(CN3CCN(Cc4c[nH]c5ccccc45)CC3)c[nH]c2c1` was tested, and the inhibition was 76.5%.
With `Fc1ccc2[nH]c3c(c2c1)C[PH](Cc1cccc2ccccc12)(c1ccccc1)CC3` the inhibition was 97.5%.
Compound `CCC(C)C(NC(=O)C(CC(C)C)NC(=O)C(N)Cc1c[nH]c2ccccc12)C(=O)NC(Cc1c[nH]c2ccccc12)C(=O)O` (stereo not drawn) (H-WLIW-OH; configuration not given here) has an inhibition of 38.9%.
For `O=C(Nc1ccccc1)c1cc(S(=O)(=O)Nc2nc3cccnc3[nH]2)c(SSc2cc(Cl)c(C(=O)Nc3ccccc3)cc2S(=O)(=O)Nc2nc3cccnc3[nH]2)cc1Cl`, the inhibition was 9.9%.
Work on `Cc1ccc2[nH]/c(=N/S(=O)(=O)c3cc(C)c(Cl)cc3S)[nH]c2c1` yielded an inhibition of 50.9%.
`c1ccc2[nH]c(SCCSc3nc4ccccc4[nH]3)nc2c1` gave an inhibition of 81.2%.
In the case of `Cc1ccc(S(=O)(=O)C(C#N)(Cc2c[nH]c3ccccc23)Cc2c[nH]c3ccccc23)cc1`, the inhibition is reported as 48.5%.
In the case of `Cc1c(C(=O)CSc2nc3ccccc3[nH]2)c(=O)n(-c2ccccc2)n1C`, the inhibition is reported as 62.7%.
`Cc1cc(S(=O)(=O)N=c2[nH]c3cccc(C)c3[nH]2)c(SCc2ccccc2)cc1Cl` showed an inhibition of 55.6%.
`N#CC(C(=O)CCc1nc2ccccc2[nH]1)c1c(Cl)cccc1Cl` (stereo not drawn) showed an inhibition of 32.7%.
`Oc1ccc2[nH]c3c(c2c1)C[PH](Cc1cccc2ccccc12)(c1ccccc1)CC3` gave an inhibition of 99.7%.
`Cc1ccc(S(=O)(=O)OCC2CCc3[nH]c4ccccc4c3C2)cc1` (stereo not drawn) was tested, and the inhibition was 73.1%.
In the case of `c1ccc2[nH]c(CN(CCN(Cc3nc4ccccc4[nH]3)Cc3nc4ccccc4[nH]3)Cc3nc4ccccc4[nH]3)nc2c1`, the inhibition is reported as 92%.
With `COc1ccc(OC)c2[nH]c(CCc3nc4c(OC)ccc(OC)c4[nH]3)nc12` the inhibition was 16.7%.
In the case of `CCn1c(CCCc2nc3c(=O)n(C)c(=O)n(C)c3[nH]2)nc2c1c(=O)n(C)c(=O)n2C`, the inhibition is reported as 15.4%.
`COC(=O)C(Cc1c[nH]c2ccccc12)NC(=O)C(Cc1c[nH]c2ccccc12)NC(=O)C(Cc1c[nH]c2ccccc12)NC(=O)C(Cc1c[nH]c2ccccc12)NC(=O)C(Cc1c[nH]c2ccccc12)NC(=O)C(Cc1c[nH]c2ccccc12)NC(=O)OC(C)(C)C` (stereo not drawn) (Boc-WWWWWW-OMe; configuration not given here) showed an inhibition of 46%.
`CN(C)c1ccc(C=CC(=O)c2nc3ccccc3[nH]2)cc1` showed an inhibition of 43.2%.
Compound `O=c1[nH]c2cc(Cl)ccc2n1C1CCN(CCCC(c2ccc(F)cc2)c2ccc(F)cc2)CC1` has an inhibition of 43.2%.
`Cn1c(=O)c2nc(CCCCc3nc4ccccc4[nH]3)[nH]c2n(C)c1=O` was tested, and the inhibition was 25.6%.
Work on `Cn1c(=O)c2[nH]c(C(O)C(O)c3nc4c([nH]3)c(=O)n(C)c(=O)n4C)nc2n(C)c1=O` (stereo not drawn) yielded an inhibition of 25%.
`Cc1ccc2nc(CN(CCN(Cc3nc4ccc(C)cc4[nH]3)Cc3nc4ccc(C)cc4[nH]3)Cc3nc4ccc(C)cc4[nH]3)[nH]c2c1` was tested, and the inhibition was 41.7%.
Compound `COC(=O)C(Cc1c[nH]c2ccccc12)NC(=O)C(Cc1c[nH]c2ccccc12)NC(=O)OCc1ccccc1` (stereo not drawn) has an inhibition of 92.9%.
Work on `Cc1cc(CSCCc2nc3ccccc3[nH]2)c(O)c(CSCCc2nc3ccccc3[nH]2)c1` yielded an inhibition of 101%.
With `Cc1cc(S(=O)(=O)N=c2[nH]c3ccccc3[nH]2)c(SCc2ccccc2)cc1Cl` the inhibition was 65.7%.
With `Cc1cc2nc(C(O)C(O)C(O)C(O)c3nc4cc(C)c(C)cc4[nH]3)[nH]c2cc1C` (stereo not drawn) the inhibition was 4%.
In the case of `Cc1[nH]c2ccccc2c1C1=CC(c2c(C)[nH]c3ccccc23)CCC1` (stereo not drawn), the inhibition is reported as 75%.
`Cc1cc(S(=O)(=O)NC2=Nc3cccc4cccc(c34)N2)c(S)cc1Cl` was tested, and the inhibition was 50.3%.
Work on `Cc1[nH]c2ccccc2c1C(=O)CC1(O)C(=O)Nc2c(Cl)cc(Cl)cc21` (stereo not drawn) yielded an inhibition of 47.5%.
`Cc1nc(C(N)=S)sc1C(=O)CC(=O)C(=O)Nc1nc2ccccc2[nH]1` gave an inhibition of 43.5%.
`Cn1c(=O)c2nc(CS(=O)(=O)Cc3nc4c(=O)n(C)c(=O)n(C)c4[nH]3)[nH]c2n(C)c1=O` showed an inhibition of 8%.
Work on `O=c1[nH]nc(Cc2ccc(Cl)cc2)n1N=Cc1c[nH]c2ccccc12` yielded an inhibition of 20.7%.
`Cn1c(=O)c2[nH]c(CCCc3nc4c([nH]3)c(=O)n(C)c(=O)n4C)nc2n(C)c1=O` showed an inhibition of 19.1%.
In the case of `Cc1cc(S(=O)(=O)Nc2nc3ccccc3[nH]2)c(S)cc1Cl`, the inhibition is reported as 48.5%.
`COC(=O)C(Cc1c[nH]c2ccccc12)NC(=O)C(Cc1c[nH]c2ccccc12)NC(=O)C(Cc1c[nH]c2ccccc12)NC(=O)C(Cc1c[nH]c2ccccc12)NC(=O)OC(C)(C)C` (stereo not drawn) (Boc-WWWW-OMe; configuration not given here) showed an inhibition of 51.2%.
`Cn1c(=O)c2nc(COCc3nc4c(=O)n(C)c(=O)n(C)c4[nH]3)[nH]c2n(C)c1=O` was tested, and the inhibition was 26.5%.
`Cn1c(=O)c2[nH]c(CCCc3nc4c(c(=O)n(C)c(=O)n4C)n3C)nc2n(C)c1=O` was tested, and the inhibition was 25.3%.
With `O=S(=O)(Cc1nc2ccccc2[nH]1)Cc1nc2ccccc2[nH]1` the inhibition was 62%.

The compounds below were run against T1, Cholinesterase.
Description: Inhibition of BChE (unknown origin) incubated for 10 mins by Ellman's method
For `c1ccc2c(CN3CCN(Cc4c[nH]c5ccccc45)CC3)c[nH]c2c1`, the IC50 was 987 nM.
With `c1ccc2[nH]c(SCCSc3nc4ccccc4[nH]3)nc2c1` the IC50 was 3030 nM.
Work on `c1ccc2[nH]c(CN(CCN(Cc3nc4ccccc4[nH]3)Cc3nc4ccccc4[nH]3)Cc3nc4ccccc4[nH]3)nc2c1` yielded an IC50 of 1360 nM.
`Cc1cc(CSCCc2nc3ccccc3[nH]2)c(O)c(CSCCc2nc3ccccc3[nH]2)c1` was tested, and the IC50 was 32 nM.
Compound `CCN(CC)C(C)CN1c2ccccc2Sc2ccccc21` (stereo not drawn) [ETHOPROPAZINE] has an IC50 of 210 nM.
